Reference: patent US9266904B2, “6-bridged heteroaryldihydropyrimidines for the treatment and prophylaxis of hepatitis B virus infection” (priority 2013, dated 2016)
In brackets after ≈: the same amount, converted by molar mass. Like-named read-outs stand apart in the source and are kept apart here.

Experiments:
[1] = tested on: HBV replication in HepG2.2.15 cells; assay: Anti-HBV activity in vitro in HepG2.2.15 cells (extracellular HBV DNA by qPCR); format: cell-based; details: Hepatitis B virus, HepG2.2.15, Anti-HBV activity in HepG2.2.15 cells; read-out: EC50
Summary of the method: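 Constitutively HBV-producing HepG2.2.15 cells were seeded overnight at 37 °C, then treated with half-log serial dilutions of compound (0.5% DMSO final) for five days. Supernatant HBV DNA was extracted and quantified by qPCR; EC50 is the concentration inhibiting HBV replication by 50%.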

[2] = tested on: HepDE19 cells; assay: Cytotoxicity (CCK-8 cell viability) and selectivity index; format: cell-based, human; details: CC50 value/EC50 value
From the text: (§1) HepG2.2.15 and HepDE19 are stably-transfected cell lines containing the HBV genome. Both cell lines are derived from the hepatoblastoma cell line Hep G2 (American Type Culture Collection, ATCC® HB-8065™) by the published procedures described in references: M A Selles et al. Proc. Natl. Acad. Sci. USA 1987, 84, 1005-1009 and H Guo et al. Journal of Virology 2007, 81, 12472-12484, respectively. Both cell lines were maintained in Dulbecco's modified Eagle's medium (DMEM)-F12 medium supplemented with 10% fetal bovine serum, 100 U/mL penicillin, 100 μg/mL streptomycin, and 0.5 mg/mL of G418.
(§2) In a cell culture model, apparent antiviral activity of a compound can be the result of host cell death after exposure to the compound. To determine whether the anti-HBV effect of a test compound is due to cytotoxicity, HepDE19 cells were seeded into 96-well plates (5×10^3 cells per well) and treated with compounds as described above for EC50 determination. Five days after treatment, cell viability was measured by addition of 20 μL of CCK-8 reagent. Two hours after incubation at 37° C., the absorbance at wavelengths of 450 nm and 630 nm (OD450 and OD630) was recorded by a plate reader. The concentration results in the death of 50% of the host cells (CC50) of each compound was determined (See Table 5).

[3] = as above; format: cell-based, human; details: human, HepDE19 cells; cytotoxicity, concentration resulting in death of 50% of host cells
From the text: as §1, §2

[4] = Human microsomal clearance assay; format: in vitro ADME
Summary of the method: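 Liver microsomes (0.5 mg/mL protein) were incubated with 1 μM compound at 37 °C, pH 7.4 phosphate, with an NADPH-regenerating system. Samples at 0-30 min were quenched and measured by LC-MS/MS for parent loss. No-NADPH controls were included.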

[5] = Lyophilisation solubility assay (Lysa); format: physicochemical; details: thermodynamic from solid
Summary of the method: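 DMSO was evaporated from 10 mM stocks, and residues were taken up in 0.05 M phosphate buffer pH 6.5, stirred 1 h, shaken 2 h and left overnight. Filtrates were quantified by UV or HPLC-UV against a four-point calibration, in duplicate. Values are in μg/ml, with a lower-bound value when >80% dissolved.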

[6] = aqueous buffer, 0.05 M phosphate buffer (pH 6.5), reported as bigger than the value if more than 80% of the sample is in solution, read-out: Lysa

SMILES | EC50 [1] [nM] | Selectivity index (CC50/EC50) [2] | CC50 at 5 days [3] [nM] | CLh ([4]; human, 1 μM, pH 7.4) [mL/min/kg] | solubility thermodynamic ([5]; pH 6.5, aqueous buffer) [µg/mL] | CLh ([4]; human microsomal clearance) [mL/min/kg] | solubility thermodynamic [5, 6] [µg/mL]
COC(=O)C1=C(CN2C3CC(F)(F)C2C[C@@](O)(CC(=O)O)C3)NC(c2nccs2)=N[C@H]1c1ccc(F)cc1Cl (single isomer, unassigned) [Example 116] | 7.3 | >13699 | > 100000 | 2.6 | 495 (≈ 846 µM) |  | 
COC(=O)C1=C(CN2C3CC(F)(F)C2C[C@@](O)(CC(=O)O)C3)NC(c2nccs2)=N[C@@H]1c1ccc(F)c(F)c1C (single isomer, unassigned) [Example 118] | 5 | 8960 | 45000 | 3.1 | 112 (≈ 192 µM) |  | 
COC(=O)C1=C(CN2C3CC(F)(F)C2C[C@@](O)(CC(=O)O)C3)NC(c2nccs2)=N[C@H]1c1cccc(F)c1Cl (single isomer, unassigned) [Example 120] | 9.6 | 9083 | 87000 | 0 | 317 (≈ 542 µM) |  | 
COC(=O)C1=C(CN2C3COCC2CC(O)(CO)C3)NC(c2nccs2)=N[C@H]1c1ccc(F)cc1Cl (stereo partly drawn) [Example 10, (R)-4-(2-Chloro-4-fluoro-phenyl)-6-(7-hydroxy-7-hydroxymethyl-3-oxa-9-aza-bicyclo[3.3.1]non-9-ylmethyl)-2-thiazol-2-yl-1,4-dihydro-pyrimidine-5-carboxylic acid methyl ester] | 8.8 | >11364 | > 100000 |  | 435 (≈ 810 µM) |  | 
COC(=O)C1=C(CN2C3COCC2CC(CC(=O)O)C3)NC(c2nccs2)=N[C@H]1c1ccc(F)cc1Br (stereo partly drawn) [Example 28, (R)-4-(2-Bromo-4-fluoro-phenyl)-6-(7-carboxymethyl-3-oxa-9-aza-bicyclo[3.3.1]non-9-ylmethyl)-2-thiazol-2-yl-1,4-dihydro-pyrimidine-5-carboxylic acid methyl ester] | 15 | >9804 | > 100000 | 0.6 | > 655 |  | 
COC(=O)C1=C(CN2C3COCC2c2c(n(C)[nH]c2=O)C3)NC(c2nccs2)=N[C@H]1c1ccc(F)cc1Cl (stereo partly drawn) [Example 33, (R)-4-(2-Chloro-4-fluoro-phenyl)-6-(5-methyl-3-oxo-10-oxa-4,5,12-triaza-tricyclo[6.3.1.0*2,6*]dodec-2(6)-en-12-ylmethyl)-2-thiazol-2-yl-1,4-dihydro-pyrimidine-5-carboxylic acid methyl ester] | 11 | >9091 | > 100000 |  | 100 (≈ 179 µM) |  | 
COC(=O)C1=C(CN2CC3(CO)CC2CO3)NC(c2nccs2)=N[C@H]1c1ccc(F)cc1Cl (stereo partly shown) [Example 39] | 32 | >5848 | > 100000 |  |  | 7.4 | > 610
CCOC(=O)C1=C(CN2C3COCC2C(C(=O)O)C3)NC(c2nccs2)=N[C@H]1c1ccc(F)cc1Br (stereo partly drawn) [Example 52, 8-[[(4R)-4-(2-bromo-4-fluoro-phenyl)-5-ethoxycarbonyl-2-thiazol-2-yl-1,4-dihydropyrimidin-6-yl]methyl]-3-oxa-8-azabicyclo[3.2.1]octane-6-carboxylic acid] | 17.9 | >5587 | > 100000 | 2.7 | > 630 |  | 
COC(=O)C1=C(CN2C3COCC2CN(C(N)=O)C3)NC(c2nccs2)=N[C@H]1c1ccc(F)cc1Br [Example 54, Methyl (4R)-4-(2-bromo-4-fluoro-phenyl)-6-[(7-carbamoyl-3-oxa-7,9-diazabicyclo[3.3.1]nonan-9-yl)methyl]-2-thiazol-2-yl-1,4-dihydropyrimidine-5-carboxylate] | 8.2 | 7300 | 60000 | 6.5 | 119 (≈ 205 µM) |  | 
COC(=O)C1=C(CN2[C@@H]3COC[C@H]2C[C@H](CC(=O)O)C3)NC(c2nccs2)=N[C@H]1c1ccc(F)cc1Br [Example 58, 2-[(1S,5R)-9-[[(4R)-4-(2-bromo-4-fluoro-phenyl)-5-methoxycarbonyl-2-thiazol-2-yl-1,4-dihydropyrimidin-6-yl]methyl]-3-oxa-9-azabicyclo[3.3.1]nonan-7-yl]acetic acid] | 11.4 | >8772 | > 100000 | 2.1 | > 701 |  | 
COC(=O)C1=C(CN2[C@@H]3COC[C@H]2C[C@H](NS(C)(=O)=O)C3)NC(c2nccs2)=N[C@H]1c1ccc(F)cc1Cl [Example 60, Methyl (4R)-4-(2-chloro-4-fluoro-phenyl)-6-[[(1R,5S)-7-exo-(methanesulfonamido)-3-oxa-9-azabicyclo[3.3.1]nonan-9-yl]methyl]-2-thiazol-2-yl-1,4-dihydropyrimidine-5-carboxylate] | 1.6 | 21169 | 34000 | 6.4 |  |  | 
COC(=O)C1=C(CN2[C@@H]3COC[C@H]2C[C@H](NC(C)=O)C3)NC(c2nccs2)=N[C@H]1c1ccc(F)cc1Cl [Example 61, Methyl (4R)-6-[[(1S,5R)-7-exo-acetamido-3-oxa-9-azabicyclo[3.3.1]nonan-9-yl]methyl]-4-(2-chloro-4-fluoro-phenyl)-2-thiazol-2-yl-1,4-dihydropyrimidine-5-carboxylate] | 4.8 | 10942 | 53000 | 6.3 |  |  | 
COC(=O)C1=C(CN2[C@@H]3COC[C@H]2C[C@H](NC(N)=O)C3)NC(c2nccs2)=N[C@H]1c1ccc(F)cc1Cl [Example 62, Methyl (4R)-4-(2-chloro-4-fluoro-phenyl)-2-thiazol-2-yl-6-[[(1S,5R)-7-exo-ureido-3-oxa-9-azabicyclo[3.3.1]nonan-9-yl]methyl]-1,4-dihydropyrimidine-5-carboxylate] | 7 | 6571 | 46000 | 4.6 |  |  | 
COC(=O)C1=C(CN2[C@@H]3COC[C@H]2C[C@H](NS(N)(=O)=O)C3)NC(c2nccs2)=N[C@H]1c1ccc(F)cc1Cl [Example 63, Methyl (4R)-4-(2-chloro-4-fluoro-phenyl)-6-[[(1R,5S)-7-exo-(sulfamoylamino)-3-oxa-9-azabicyclo[3.3.1]nonan-9-yl]methyl]-2-thiazol-2-yl-1,4-dihydropyrimidine-5-carboxylate] | 1.5 | 22367 | 34000 | 4.1 |  |  | 
COC(=O)C1=C(CN2[C@@H]3C[C@@H](CC(=O)O)C[C@H]2C(F)(F)C3)NC(c2nccs2)=N[C@H]1c1ccc(F)c(F)c1C [Example 111, 2-[(1R,3R,5S)-8-[[(4S)-4-(3,4-difluoro-2-methyl-phenyl)-5-methoxycarbonyl-2-thiazol-2-yl-1,4-dihydropyrimidin-6-yl]methyl]-6,6-difluoro-8-azabicyclo[3.2.1]octan-3-yl]acetic acid] | 1.2 | 65983 | 79000 | 4.8 |  |  | 
CCOC(=O)C1=C(CN2C3COCC2C(F)(F)[C@H](CC(=O)O)C3)NC(c2nccs2)=N[C@H]1c1ccc(F)c(F)c1C (stereo partly drawn) [Example 128, 2-[(7S)-9-[[(4S)-4-(3,4-difluoro-2-methyl-phenyl)-5-ethoxycarbonyl-2-thiazol-2-yl-1,4-dihydropyrimidin-6-yl]methyl]-6,6-difluoro-3-oxa-9-azabicyclo[3.3.1]nonan-7-yl]acetic acid] | 2.5 | 14056 | 35000 | 3.8 |  |  | 
COC(=O)C1=C(CN2CC3(CNC(C)=O)CC2CO3)NC(c2nccs2)=N[C@H]1c1ccc(F)cc1Cl (stereo partly drawn) [Example 145, Methyl (4R)-6-[[4-(acetamidomethyl)-5-oxa-2-azabicyclo[2.2.1]heptan-2-yl]methyl]-4-(2-chloro-4-fluoro-phenyl)-2-thiazol-2-yl-1,4-dihydropyrimidine-5-carboxylate] | 17 | >5882 | > 100000 |  |  |  | 585 (≈ 1100 µM)
